Reference: ChEMBL document CHEMBL3885881, “DrugMatrix”

Species on record: Rattus norvegicus
Experiment: DrugMatrix - Regimen: Daily Repeat
Type: toxicity, organism-based, Sprague-Dawley
Parameters: regimen Daily Repeat, gender Male, age 6-8 weeks
Settings: in vivo, po, route oral GAVAGE, vehicle 100 % WATER; for ABSOLUTE BASOPHIL / ABSOLUTE EOSINOPHIL / ABSOLUTE LYMPHOCYTE / ABSOLUTE MONOCYTE / ABSOLUTE SEGMENTED NEUTROPHIL / BASOPHIL / EOSINOPHIL / ERYTHROCYTE COUNT / HEMATOCRIT / HEMOGLOBIN / LEUKOCYTE COUNT / LYMPHOCYTE / MEAN CORPUSCULAR HEMOGLOBIN / MEAN CORPUSCULAR HEMOGLOBIN CONCENTRATION / MEAN CORPUSCULAR VOLUME / MONOCYTE / NEUTROPHIL / NUCLEATED RED BLOOD CELLS / PLATELET COUNT: tissue Blood; for ALANINE AMINOTRANSFERASE / ALBUMIN / ALKALINE PHOSPHATASE / ASPARTATE AMINOTRANSFERASE / BLOOD UREA NITROGEN / CARBON DIOXIDE / CHLORIDE / CHOLESTEROL / CREATINE PHOSPHOKINASE / CREATININE / GLUCOSE / LACTATE DEHYDROGENASE / LIPASE / PHOSPHORUS / POTASSIUM / SODIUM / TOTAL BILIRUBIN / TOTAL PROTEIN / URIC ACID: tissue Plasma
[1] = 110 mg/kg, 72 h, dose level Low, time 3 day
[2] = 110 mg/kg, 120 h, dose level Low, time 5 day
[3] = 400 mg/kg, 72 h, dose level High, time 3 day
[4] = 400 mg/kg, 120 h, dose level High, time 5 day

SMILES: CCOC(=O)n1ccn(C)c1=S [CARBIMAZOLE]
- ABSOLUTE BASOPHIL [1]: 0 CELLS/uL
- ABSOLUTE EOSINOPHIL [1]: 15.67 CELLS/uL
- ABSOLUTE LYMPHOCYTE [1]: 5022.67 CELLS/uL
- ABSOLUTE MONOCYTE [1]: 37.33 CELLS/uL
- ABSOLUTE SEGMENTED NEUTROPHIL [1]: 357.67 CELLS/uL
- BASOPHIL [1]: 0%
- EOSINOPHIL [1]: 0.33%
- ERYTHROCYTE COUNT [1]: 5.37 x10E6/uL
- HEMATOCRIT [1]: 33.5%
- HEMOGLOBIN [1]: 13.37 G/DL
- LEUKOCYTE COUNT [1]: 5.43 x10E3/uL
- LYMPHOCYTE [1]: 92%
- MEAN CORPUSCULAR HEMOGLOBIN [1]: 24.9 pg
- MEAN CORPUSCULAR HEMOGLOBIN CONCENTRATION [1]: 39.9 G/DL
- MEAN CORPUSCULAR VOLUME [1]: 62.43 fL
- MONOCYTE [1]: 0.67%
- NEUTROPHIL [1]: 7%
- NUCLEATED RED BLOOD CELLS [1]: 0 /100WBC
- PLATELET COUNT [1]: 1166.67 x10E3/uL
- ALANINE AMINOTRANSFERASE [1]: 39.33 u/L
- ALBUMIN [1]: 4.23 G/DL
- ALKALINE PHOSPHATASE [1]: 314 u/L
- ASPARTATE AMINOTRANSFERASE [1]: 65.33 u/L
- BLOOD UREA NITROGEN [1]: 19.33 mg/dL
- CARBON DIOXIDE [1]: 29.33 mmol/L
- CHLORIDE [1]: 102 MEQ/L
- CHOLESTEROL [1]: 81.67 mg/dL
- CREATINE PHOSPHOKINASE [1]: 137 u/L
- CREATININE [1]: 0.2 mg/dL
- GLUCOSE [1]: 129.33 mg/dL
- LACTATE DEHYDROGENASE [1]: 155 u/L
- LIPASE [1]: 9.33 u/L
- PHOSPHORUS [1]: 10.27 mg/dL
- POTASSIUM [1]: 6.06 MEQ/L
- SODIUM [1]: 147.63 MEQ/L
- TOTAL BILIRUBIN [1]: 0.2 mg/dL
- TOTAL PROTEIN [1]: 6 G/DL
- URIC ACID [1]: 0.7 mg/dL
- ABSOLUTE BASOPHIL [2]: 0 CELLS/uL
- ABSOLUTE EOSINOPHIL [2]: 0 CELLS/uL
- ABSOLUTE LYMPHOCYTE [2]: 14370.67 CELLS/uL
- ABSOLUTE MONOCYTE [2]: 96 CELLS/uL
- ABSOLUTE SEGMENTED NEUTROPHIL [2]: 766.67 CELLS/uL
- BASOPHIL [2]: 0%
- EOSINOPHIL [2]: 0%
- ERYTHROCYTE COUNT [2]: 6.23 x10E6/uL
- HEMATOCRIT [2]: 38.1%
- HEMOGLOBIN [2]: 14.73 G/DL
- LEUKOCYTE COUNT [2]: 15.23 x10E3/uL
- LYMPHOCYTE [2]: 94%
- MEAN CORPUSCULAR HEMOGLOBIN [2]: 23.67 pg
- MEAN CORPUSCULAR HEMOGLOBIN CONCENTRATION [2]: 38.73 G/DL
- MEAN CORPUSCULAR VOLUME [2]: 61.13 fL
- MONOCYTE [2]: 0.67%
- NEUTROPHIL [2]: 5.33%
- NUCLEATED RED BLOOD CELLS [2]: 0 /100WBC
- PLATELET COUNT [2]: 998 x10E3/uL
- ALANINE AMINOTRANSFERASE [2]: 56.67 u/L
- ALBUMIN [2]: 4.53 G/DL
- ALKALINE PHOSPHATASE [2]: 416.67 u/L
- ASPARTATE AMINOTRANSFERASE [2]: 76.67 u/L
- BLOOD UREA NITROGEN [2]: 19 mg/dL
- CARBON DIOXIDE [2]: 23.33 mmol/L
- CHLORIDE [2]: 103 MEQ/L
- CHOLESTEROL [2]: 83 mg/dL
- CREATINE PHOSPHOKINASE [2]: 286 u/L
- CREATININE [2]: 0.2 mg/dL
- GLUCOSE [2]: 154 mg/dL
- LACTATE DEHYDROGENASE [2]: 175.67 u/L
- LIPASE [2]: 9.67 u/L
- PHOSPHORUS [2]: 12.53 mg/dL
- POTASSIUM [2]: 6.34 MEQ/L
- SODIUM [2]: 148.13 MEQ/L
- TOTAL BILIRUBIN [2]: 0.2 mg/dL
- TOTAL PROTEIN [2]: 6.87 G/DL
- URIC ACID [2]: 1.97 mg/dL
- ABSOLUTE BASOPHIL [3]: 0 CELLS/uL
- ABSOLUTE EOSINOPHIL [3]: 0 CELLS/uL
- ABSOLUTE LYMPHOCYTE [3]: 9627.33 CELLS/uL
- ABSOLUTE MONOCYTE [3]: 0 CELLS/uL
- ABSOLUTE SEGMENTED NEUTROPHIL [3]: 872.67 CELLS/uL
- BASOPHIL [3]: 0%
- EOSINOPHIL [3]: 0%
- ERYTHROCYTE COUNT [3]: 5.66 x10E6/uL
- HEMATOCRIT [3]: 35.3%
- HEMOGLOBIN [3]: 14.1 G/DL
- LEUKOCYTE COUNT [3]: 10.5 x10E3/uL
- LYMPHOCYTE [3]: 91.67%
- MEAN CORPUSCULAR HEMOGLOBIN [3]: 24.9 pg
- MEAN CORPUSCULAR HEMOGLOBIN CONCENTRATION [3]: 40.03 G/DL
- MEAN CORPUSCULAR VOLUME [3]: 62.3 fL
- MONOCYTE [3]: 0%
- NEUTROPHIL [3]: 8.33%
- NUCLEATED RED BLOOD CELLS [3]: 0 /100WBC
- PLATELET COUNT [3]: 1182.33 x10E3/uL
- ALANINE AMINOTRANSFERASE [3]: 38.33 u/L
- ALBUMIN [3]: 4.2 G/DL
- ALKALINE PHOSPHATASE [3]: 421 u/L
- ASPARTATE AMINOTRANSFERASE [3]: 56 u/L
- BLOOD UREA NITROGEN [3]: 12.67 mg/dL
- CARBON DIOXIDE [3]: 25.67 mmol/L
- CHLORIDE [3]: 101.67 MEQ/L
- CHOLESTEROL [3]: 82 mg/dL
- CREATINE PHOSPHOKINASE [3]: 338 u/L
- CREATININE [3]: 0.17 mg/dL
- GLUCOSE [3]: 149 mg/dL
- LACTATE DEHYDROGENASE [3]: 171 u/L
- LIPASE [3]: 9.67 u/L
- PHOSPHORUS [3]: 11.57 mg/dL
- POTASSIUM [3]: 6.88 MEQ/L
- SODIUM [3]: 143.1 MEQ/L
- TOTAL BILIRUBIN [3]: 0.2 mg/dL
- TOTAL PROTEIN [3]: 5.97 G/DL
- URIC ACID [3]: 1.73 mg/dL
- ABSOLUTE BASOPHIL [4]: 0 CELLS/uL
- ABSOLUTE EOSINOPHIL [4]: 0 CELLS/uL
- ABSOLUTE LYMPHOCYTE [4]: 9558.67 CELLS/uL
- ABSOLUTE MONOCYTE [4]: 45.33 CELLS/uL
- ABSOLUTE SEGMENTED NEUTROPHIL [4]: 1996 CELLS/uL
- BASOPHIL [4]: 0%
- EOSINOPHIL [4]: 0%
- ERYTHROCYTE COUNT [4]: 5.99 x10E6/uL
- HEMATOCRIT [4]: 37.23%
- HEMOGLOBIN [4]: 15.17 G/DL
- LEUKOCYTE COUNT [4]: 11.6 x10E3/uL
- LYMPHOCYTE [4]: 82.33%
- MEAN CORPUSCULAR HEMOGLOBIN [4]: 25.33 pg
- MEAN CORPUSCULAR HEMOGLOBIN CONCENTRATION [4]: 40.73 G/DL
- MEAN CORPUSCULAR VOLUME [4]: 62.13 fL
- MONOCYTE [4]: 0.33%
- NEUTROPHIL [4]: 17.33%
- NUCLEATED RED BLOOD CELLS [4]: 0 /100WBC
- PLATELET COUNT [4]: 1416 x10E3/uL
- ALANINE AMINOTRANSFERASE [4]: 37.33 u/L
- ALBUMIN [4]: 3.73 G/DL
- ALKALINE PHOSPHATASE [4]: 235 u/L
- ASPARTATE AMINOTRANSFERASE [4]: 30.33 u/L
- BLOOD UREA NITROGEN [4]: 19 mg/dL
- CARBON DIOXIDE [4]: 20.67 mmol/L
- CHLORIDE [4]: 105.33 MEQ/L
- CHOLESTEROL [4]: 80 mg/dL
- CREATINE PHOSPHOKINASE [4]: 198 u/L
- CREATININE [4]: 0.16 mg/dL
- GLUCOSE [4]: 124.67 mg/dL
- LACTATE DEHYDROGENASE [4]: 434.67 u/L
- LIPASE [4]: 9.33 u/L
- PHOSPHORUS [4]: 11.57 mg/dL
- POTASSIUM [4]: 6.35 MEQ/L
- SODIUM [4]: 144.43 MEQ/L
- TOTAL BILIRUBIN [4]: 0.17 mg/dL
- TOTAL PROTEIN [4]: 5.8 G/DL
- URIC ACID [4]: 1.57 mg/dL
